± gives the standard deviation of the averaged measurements.
Key:
PLX-4720 = compound: CCCS(=O)(=O)Nc1ccc(F)c(C(=O)c2c[nH]c3ncc(Cl)cc23)c1F [PLX-4720]; assay: surviving fraction relative to DMSO-only wells; higher = less growth inhibition; details: exposure time: 5 days
Outline: (§1)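 Five days of continuous inhibitor exposure, at 0.5, 1, 5, 10, 50, 100, 500 and 1000 nM, followed a 24-hour period after log-phase tumour cell lines were seeded at 250–500 cells per well in 384-well plates. Surviving fraction was derived from CellTiter-Glo luminescence relative to the median of DMSO-only wells. Plates were read after 10 minutes at room temperature, and lines screened three times were kept only if replicate Pearson r >0.7 and median Z' >0.3.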

AZD4547 = compound: COc1cc(CCc2cc(NC(=O)c3ccc(N4CC(C)NC(C)C4)cc3)n[nH]2)cc(OC)c1 [AZD4547]; assay: as above; details: exposure time: 5 days
Outline: as §1

## CAL51 BREAST
PLX-4720; 0.5 nM
  surviving fraction: 0.926 ± 0.04
PLX-4720; 1 nM
  surviving fraction: 0.897 ± 0.026
PLX-4720; 5 nM
  surviving fraction: 0.985 ± 0.045
PLX-4720; 10 nM
  surviving fraction: 0.939 ± 0.038
PLX-4720; 50 nM
  surviving fraction: 0.992 ± 0.027
PLX-4720; 100 nM
  surviving fraction: 1.02 ± 0.029
PLX-4720; 500 nM
  surviving fraction: 1.04 ± 0.052
PLX-4720; 1000 nM
  surviving fraction: 1.05 ± 0.04
AZD4547; 0.5 nM
  surviving fraction: 0.9767 ± 0.007
AZD4547; 1 nM
  surviving fraction: 0.977 ± 0.035
AZD4547; 5 nM
  surviving fraction: 0.937 ± 0.029
AZD4547; 10 nM
  surviving fraction: 0.849 ± 0.052
AZD4547; 50 nM
  surviving fraction: 0.7553 ± 0.0068
AZD4547; 100 nM
  surviving fraction: 0.738 ± 0.022
AZD4547; 500 nM
  surviving fraction: 0.616 ± 0.021
AZD4547; 1000 nM
  surviving fraction: 0.602 ± 0.059

## HCC38 BREAST
PLX-4720; 0.5 nM
  surviving fraction: 0.812 ± 0.15
PLX-4720; 1 nM
  surviving fraction: 0.836 ± 0.19
PLX-4720; 5 nM
  surviving fraction: 0.893 ± 0.14
PLX-4720; 10 nM
  surviving fraction: 0.911 ± 0.17
PLX-4720; 50 nM
  surviving fraction: 1.03 ± 0.11
PLX-4720; 100 nM
  surviving fraction: 1.05 ± 0.28
PLX-4720; 500 nM
  surviving fraction: 1.12 ± 0.1
PLX-4720; 1000 nM
  surviving fraction: 1.03 ± 0.28
AZD4547; 0.5 nM
  surviving fraction: 0.972 ± 0.24
AZD4547; 1 nM
  surviving fraction: 0.947 ± 0.062
AZD4547; 5 nM
  surviving fraction: 1.02 ± 0.2
AZD4547; 10 nM
  surviving fraction: 1.11 ± 0.22
AZD4547; 50 nM
  surviving fraction: 0.78 ± 0.14
AZD4547; 100 nM
  surviving fraction: 0.801 ± 0.14
AZD4547; 500 nM
  surviving fraction: 0.66 ± 0.11
AZD4547; 1000 nM
  surviving fraction: 0.785 ± 0.046

## JURKAT HAEMATOPOIETIC AND LYMPHOID TISSUE
PLX-4720; 0.5 nM
  surviving fraction: 0.9917 ± 0.0087
PLX-4720; 1 nM
  surviving fraction: 0.964 ± 0.02
PLX-4720; 5 nM
  surviving fraction: 0.935 ± 0.026
PLX-4720; 10 nM
  surviving fraction: 0.972 ± 0.04
PLX-4720; 50 nM
  surviving fraction: 0.981 ± 0.026
PLX-4720; 100 nM
  surviving fraction: 0.996 ± 0.059
PLX-4720; 500 nM
  surviving fraction: 1.03 ± 0.02
PLX-4720; 1000 nM
  surviving fraction: 1.06 ± 0.016
AZD4547; 0.5 nM
  surviving fraction: 1 ± 0.027
AZD4547; 1 nM
  surviving fraction: 1.06 ± 0.036
AZD4547; 5 nM
  surviving fraction: 1.01 ± 0.026
AZD4547; 10 nM
  surviving fraction: 1.04 ± 0.021
AZD4547; 50 nM
  surviving fraction: 0.967 ± 0.034
AZD4547; 100 nM
  surviving fraction: 0.951 ± 0.033
AZD4547; 500 nM
  surviving fraction: 1.04 ± 0.018
AZD4547; 1000 nM
  surviving fraction: 1 ± 0.035

## HCC1954 BREAST
PLX-4720; 0.5 nM
  surviving fraction: 0.487 ± 0.0099
PLX-4720; 1 nM
  surviving fraction: 0.487 ± 0.028
PLX-4720; 5 nM
  surviving fraction: 0.455 ± 0.038
PLX-4720; 10 nM
  surviving fraction: 0.452 ± 0.053
PLX-4720; 50 nM
  surviving fraction: 0.55 ± 0.029
PLX-4720; 100 nM
  surviving fraction: 0.476 ± 0.027
PLX-4720; 500 nM
  surviving fraction: 0.466 ± 0.072
PLX-4720; 1000 nM
  surviving fraction: 0.403 ± 0.0074
AZD4547; 0.5 nM
  surviving fraction: 0.677 ± 0.04
AZD4547; 1 nM
  surviving fraction: 0.711 ± 0.052
AZD4547; 5 nM
  surviving fraction: 0.84 ± 0.087
AZD4547; 10 nM
  surviving fraction: 1.01 ± 0.12
AZD4547; 50 nM
  surviving fraction: 0.956 ± 0.023
AZD4547; 100 nM
  surviving fraction: 0.887 ± 0.069
AZD4547; 500 nM
  surviving fraction: 1.0088 ± 0.00035
AZD4547; 1000 nM
  surviving fraction: 1 ± 0.1

## MDAMB453 BREAST
PLX-4720; 0.5 nM
  surviving fraction: 0.963 ± 0.054
PLX-4720; 1 nM
  surviving fraction: 1.01 ± 0.048
PLX-4720; 5 nM
  surviving fraction: 1.04 ± 0.071
PLX-4720; 10 nM
  surviving fraction: 1.01 ± 0.044
PLX-4720; 50 nM
  surviving fraction: 0.977 ± 0.075
PLX-4720; 100 nM
  surviving fraction: 1.03 ± 0.083
PLX-4720; 500 nM
  surviving fraction: 1.03 ± 0.044
PLX-4720; 1000 nM
  surviving fraction: 1.03 ± 0.042
AZD4547; 0.5 nM
  surviving fraction: 1.02 ± 0.074
AZD4547; 1 nM
  surviving fraction: 1.094 ± 0.01
AZD4547; 5 nM
  surviving fraction: 1.106 ± 0.004
AZD4547; 10 nM
  surviving fraction: 1.11 ± 0.056
AZD4547; 50 nM
  surviving fraction: 1.1 ± 0.019
AZD4547; 100 nM
  surviving fraction: 0.825 ± 0.021
AZD4547; 500 nM
  surviving fraction: 0.565 ± 0.021
AZD4547; 1000 nM
  surviving fraction: 0.585 ± 0.025

## 93VU HEADNECK
PLX-4720; 0.5 nM
  surviving fraction: 0.755 ± 0.071
PLX-4720; 1 nM
  surviving fraction: 0.813 ± 0.082
PLX-4720; 5 nM
  surviving fraction: 0.798 ± 0.044
PLX-4720; 10 nM
  surviving fraction: 0.877 ± 0.024
PLX-4720; 50 nM
  surviving fraction: 1.08 ± 0.011
PLX-4720; 100 nM
  surviving fraction: 1.07 ± 0.081
PLX-4720; 500 nM
  surviving fraction: 0.998 ± 0.092
PLX-4720; 1000 nM
  surviving fraction: 1.02 ± 0.054
AZD4547; 0.5 nM
  surviving fraction: 1.01 ± 0.063
AZD4547; 1 nM
  surviving fraction: 1.08 ± 0.058
AZD4547; 5 nM
  surviving fraction: 1.08 ± 0.09
AZD4547; 10 nM
  surviving fraction: 1.11 ± 0.05
AZD4547; 50 nM
  surviving fraction: 1.11 ± 0.042
AZD4547; 100 nM
  surviving fraction: 1.16 ± 0.089
AZD4547; 500 nM
  surviving fraction: 1.1 ± 0.077
AZD4547; 1000 nM
  surviving fraction: 0.975 ± 0.086

## SUM159 BREAST
PLX-4720; 0.5 nM
  surviving fraction: 1.04 ± 0.28
PLX-4720; 1 nM
  surviving fraction: 1.08 ± 0.28
PLX-4720; 5 nM
  surviving fraction: 1.04 ± 0.21
PLX-4720; 10 nM
  surviving fraction: 1.08 ± 0.23
PLX-4720; 50 nM
  surviving fraction: 1.08 ± 0.25
PLX-4720; 100 nM
  surviving fraction: 1.1 ± 0.26
PLX-4720; 500 nM
  surviving fraction: 1.1 ± 0.24
PLX-4720; 1000 nM
  surviving fraction: 1.11 ± 0.21
AZD4547; 0.5 nM
  surviving fraction: 1.16 ± 0.24
AZD4547; 1 nM
  surviving fraction: 1.19 ± 0.22
AZD4547; 5 nM
  surviving fraction: 1.15 ± 0.2
AZD4547; 10 nM
  surviving fraction: 1.2 ± 0.23
AZD4547; 50 nM
  surviving fraction: 1.15 ± 0.2
AZD4547; 100 nM
  surviving fraction: 1.14 ± 0.2
AZD4547; 500 nM
  surviving fraction: 1.22 ± 0.27
AZD4547; 1000 nM
  surviving fraction: 1.1 ± 0.15

— the supplement of paper PMC6045584
